Data reported in BindingDB's records for doi:10.1016/j.bioorg.2015.04.003 (Comsats Institute of Information Technology, 2015).

Biological target: T1, Thymidine phosphorylase (Escherichia coli O157:H7, UniProt Q8XB35)
T1 sequence (Q8XB35 whole entry): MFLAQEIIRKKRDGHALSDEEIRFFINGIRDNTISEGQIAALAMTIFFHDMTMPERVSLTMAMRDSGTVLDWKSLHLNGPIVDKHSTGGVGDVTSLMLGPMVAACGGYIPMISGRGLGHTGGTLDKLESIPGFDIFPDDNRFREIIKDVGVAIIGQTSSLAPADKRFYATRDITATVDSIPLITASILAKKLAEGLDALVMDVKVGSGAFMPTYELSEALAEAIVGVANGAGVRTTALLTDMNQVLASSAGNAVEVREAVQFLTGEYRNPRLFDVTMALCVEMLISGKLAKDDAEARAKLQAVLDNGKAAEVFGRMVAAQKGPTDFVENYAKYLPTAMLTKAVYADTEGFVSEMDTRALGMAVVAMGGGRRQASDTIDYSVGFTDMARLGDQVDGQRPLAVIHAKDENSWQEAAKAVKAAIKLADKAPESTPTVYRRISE
Assay: Thymidine Phosphorylase Inhibition Assay
Settings: pH 7.4
Protocol: Briefly, a total reaction mixture of 200 µl contained 145 µl of potassium phosphate buffer (pH 7.4), 30 µl of enzyme at concentration 0.05 and 0.002 U, respectively, were incubated with 5 µl of test materials for 10 min at 25 °C in microplate reader. After incubation, pre read at 290 nm was taken to deduce the absorbance of substrate molecules. Substrate (20 µl, 1.5 mM) was dissolved in potassium phosphate buffer and was immediately added to plate and continuously read after 10, 20, and 30 min in micro-plate reader. All assays were performed in triplicate

First: Oc1ccc(-c2nnc(S)o2)cc1 [5(4'-Hydroxyphenyl)-1,3,4-oxadiazole-2(3H)-thione (6)]
Second: Oc1ccccc1-c1nnc(S)o1 [5-(2'-Hydroxyphenyl)-2,3-dihydro-1,3,4-oxadiazole-2-thione (2)]
The IC50 of the first is 1.8-fold lower: 38.2 µM for the first, 68.4 µM for the second. The first is the more potent here.

`Nc1ccccc1-c1n[nH]c(=S)o1` [5-(2'-Aminophenyl)-1,3,4-oxadiazole-2(3H)-thione (3)] and `S=c1[nH]nc(-c2ccc(Br)cc2)o1` [5-(4'-Bromophenyl)-1,3,4-oxadiazole-2(3H)-thione (12)] are within 1.5-fold of each other in IC50: 74.3 µM for the first, 64 µM for the second.

`COc1cc(-c2n[nH]c(=S)o2)cc(OC)c1OC` [5-(3',4',5'-Trimethoxyphenyl)-1,3,4-oxadiazole-2(3H)-thione (8)] and `COc1ccc(-c2n[nH]c(=S)o2)cc1` [5-(4'-Methoxyphenyl)-1,3,4-oxadiazole-2(3H)-thione (7)] are within 1.5-fold of each other in IC50: 63.4 µM for the first, 72.4 µM for the second.

First: Sc1nnc(-c2cccc(Cl)c2)o1 [5-(3'-Chlorophenyl)-1,3,4-oxadiazole-2(3H)-thione (10)]
Second: Cc1cccc(-c2nnc(S)o2)c1 [5-(3'-Methylphenyl)-1,3,4-oxadiazole-2(3H)-thione (4)]
The IC50 of the first is 2.8-fold higher: 258 µM for the first, 91.8 µM for the second.

`S=c1[nH]nc(-c2ccc(Cl)cc2)o1` [5-(4'-Chlorophenyl)-1,3,4-oxadiazole-2(3H)-thione (11)] was tested, and the IC50 was 64 µM.
